Measured values taken from article PMC7915732, “Screening of Yeast Display Libraries of Enzymatically Treated Peptides to Discover Macrocyclic Peptide Ligands” (International Journal of Molecular Sciences, 2021).

What was measured:
TEV protease [1] = assay: TEV protease cleavage, intracellular transglutaminase co-expression, flow cytometry; conditions: 48 h induction
Source text: Screening of Yeast Display Libraries of Enzymatically Treated
Peptides to Discover Macrocyclic Peptide Ligands
John Bowen, John Schneible, Kaitlyn Bacon, Collin Labar, Stefano Menegatti and Balaji M. Rao […]
Plasmid construction for intracellular […]
peptide precursors on the surface […]
expression of the transglutaminase en-zyme downstream of the Gal10 promoter. […]
and inserted between the AgeI and KpnI sites of […]
under the direction of the Gal1 promoter and transglutaminase under the direction of the Gal10 promoter. […]
a 6 base pair oligonucleotide encoding the Kex2 recognition site between the pro and active transglutaminase sequence
50 ng of purified PCR product was treated with 1 […]
perature followed by incubation
DNA was then treated for 5 min at room
(New England Biolabs) prior to transformation into electrocompe- […]
introduce a point mutation […]
with an alanine (A) residue
, followed by the treatments with […]
prior to kinase, ligase, and DpnI treatment
Evaluation of intracellular transglutaminase […]
induction, a subset of the cells was treated with TEV protease as described in Section 2.3 to evaluate the extent of putative peptide cyclization. […] Induced cells that were not exposed to TEV protease were also analyzed for comparison. […]
S.1.5. […] The enrich-ment of peptide binders targeting N-terminal YAP between the screening rounds was evaluated via flow cytometry. […]

TEV protease [2] = assay: Cleavage of yeast-displayed peptide by TEV protease, flow cytometry; conditions: TEV 3 μM overnight, 37 °C, PBSCl pH 8, three independent replicates
Source text: We further evaluated the alleged cyclization yield by assessing the extent of cleavage of transglutaminase-treated vs. untreated peptide constructs from yeast cells by TEV protease. The latter recognizes the sequence ENLYFQ-G/S and cleaves between the Q and G/S residues. We hypothesize that peptide modifications—such as cyclization –inhibit TEV protease from interacting with its recognition sequence included between the construct’s His tag and HA tag. Accordingly, yeast cells expressing the linear peptide precursor—that were either treated with transglutaminase or left untreated—were incubated with TEV protease, and the binding of antibodies targeting the HA and c-myc tags was quantified via flow cytometry. […]
Yeast cells displaying linear peptide precursors (model sequence […] or 8-mer library sequences) fused to specific epitope tags (HA and c-myc tags for model sequence […]; HA and His tags for library cells) were induced. […] The non-fluorescently conjugated primary antibodies were detected by labeling with a 1:250 dilution of goat-anti-chicken antibody (Immunoreagents, Raleigh, NC, USA) or donkey-anti-rabbit (Immunoreagents, Raleigh, NC, USA) labeled with Alexa Fluor 488 (green), respectively. […] At least 50,000 cells from each sample were analyzed using a MACSQuant VYB Cytometer (Miltenyi Biotec, Bergisch Gladbach, Germany)). […]

transglutaminase = assay: Flow cytometry detection of c-myc tag after extracellular transglutaminase treatment; conditions: 1 μM transglutaminase overnight, 37 °C, PBS pH 6, three independent replicates
Source text: In this study, we adopted the sequence […] as a model linear precursor to evaluate the efficiency of transglutaminase-mediated cyclization on the surface of yeast cells; this peptide, in fact, served as model substrate in prior work on transglutaminase-mediated cyclization. Specifically, we designed a plasmid construct to express the lead sequence […] as an Aga2p fusion on the surface of Saccharomyces cerevisiae cells. Together with the model peptide, the Aga2p fusion construct contains c-myc and HA epitope tags as well as a tobacco etch virus (TEV) protease signal recognition sequence (Figure 1B). […]
Yeast cells displaying linear peptide precursors (model sequence […] or 8-mer library sequences) fused to specific epitope tags (HA and c-myc tags for model sequence […]; HA and His tags for library cells) were induced. […] The non-fluorescently conjugated primary antibodies were detected by labeling with a 1:250 dilution of goat-anti-chicken antibody (Immunoreagents, Raleigh, NC, USA) or donkey-anti-rabbit (Immunoreagents, Raleigh, NC, USA) labeled with Alexa Fluor 488 (green), respectively. […] At least 50,000 cells from each sample were analyzed using a MACSQuant VYB Cytometer (Miltenyi Biotec, Bergisch Gladbach, Germany)).

N-terminal YAP (N-YAP) = molecular target: T1, N-terminal YAP (N-YAP) (Homo sapiens, UniProt P46937); assay: Yeast surface titration (yeast-displayed peptide, soluble biotinylated N-terminal YAP); format: binding; conditions: linear peptide, no transglutaminase
T1 construct: which affords the expression of N-terminal YAP (AAs 1–291); made in house; host or cells: Rosetta E. coli
T1 sequence (P46937 1-291): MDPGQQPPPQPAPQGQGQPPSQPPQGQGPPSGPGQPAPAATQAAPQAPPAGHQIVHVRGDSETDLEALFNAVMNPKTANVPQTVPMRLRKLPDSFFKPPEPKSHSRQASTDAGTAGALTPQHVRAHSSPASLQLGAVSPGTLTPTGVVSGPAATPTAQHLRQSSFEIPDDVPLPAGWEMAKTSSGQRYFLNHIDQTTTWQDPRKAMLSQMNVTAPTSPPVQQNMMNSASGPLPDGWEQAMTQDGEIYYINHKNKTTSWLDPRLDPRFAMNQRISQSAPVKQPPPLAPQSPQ
Protocol: (§1) The binding affinity of cyclo[E-[…]-K] for N-terminal YAP and WW-YAP was characterized using a yeast surface titration method developed in prior work. Specifically, yeast cells displaying (putative) cyclo[E-[…]-K] were incubated with soluble, biotinylated N-terminal YAP or WW-YAP to generate binding isotherms; the fraction of cell surface fusions bound by the biotinylated target protein was quantified via immunofluorescent detection of SA-PE (Figure 4). The resulting data were fit to a monovalent binding isotherm to estimate the binding affinity (KD) of the peptide (Table 1). […]
(§2) Figure 4 Surface titrations of (A) yeast cells displaying (putative) cyclo[E-[…]-K] with the WW domain of YAP (WW-YAP, black circles) and bovine serum albumin (BSA, green diamonds); (B) yeast cells displaying the linear peptide sequence […] with WW-YAP; (C) yeast cells displaying (putative) cyclo[E-[…]-K] with N-terminal-YAP (N-YAP, black circles) and BSA (green diamonds); and (D) yeast cells displaying the linear peptide sequence […] with N-YAP. The binding of each biotinylated protein was detected using SA-PE followed by flow cytometry analysis. […]
(§3) Yeast cells encoding the linear precursor […] were induced. […] The cells were then analyzed by flow cytometry as described in [21, 50]. A SA-PE only labeling was also carried out to quantify the mean background fluorescence. […]

[3] = molecular target: T2, WW domains of YAP (WW-YAP) (Homo sapiens, UniProt P46937); assay: Yeast surface titration (yeast-displayed peptide, soluble biotinylated WW-YAP); format: binding; set-up: key to KD (apparent) WW-YAP: N/D: not detectable; L/B: low binding; conditions: for binding to WW-YAP (in words): linear peptide, no transglutaminase
T2 construct: which affords the expression of the WW domains of YAP (AAs 165–271); made in house; host or cells: Rosetta E. coli
T2 sequence (P46937 165-271): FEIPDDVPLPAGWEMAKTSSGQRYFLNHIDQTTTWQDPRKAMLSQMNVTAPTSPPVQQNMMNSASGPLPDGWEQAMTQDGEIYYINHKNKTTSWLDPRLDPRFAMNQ
Protocol: The binding affinity of cyclo[E-[…]-K] for N-terminal YAP and WW-YAP was characterized using a yeast surface titration method developed in prior work. Specifically, yeast cells displaying (putative) cyclo[E-[…]-K] were incubated with soluble, biotinylated N-terminal YAP or WW-YAP to generate binding isotherms; the fraction of cell surface fusions bound by the biotinylated target protein was quantified via immunofluorescent detection of SA-PE (Figure 4). The resulting data were fit to a monovalent binding isotherm to estimate the binding affinity (KD) of the peptide (Table 1). Binding isotherms were also generated using BSA (Figure 4A,C), to characterize the binding selectivity, as well as for cells displaying the linear precursor ([…]), to evaluate the effect of cyclization on the binding activity of the identified peptide sequence (Figure 4B,D).
as §2
Yeast cells encoding the linear precursor […] were induced. […] The cells were then analyzed by flow cytometry as described in [21, 50]. A SA-PE only labeling was also carried out to quantify the mean background fluorescence. […] The values of KD were estimated using Equation (1):(1) F=Fmax[L]o/KD+[L]o where F is the background subtracted mean fluorescence intensity, [L]o is the concentration of soluble target protein used for labeling, and Fmax is the background subtracted fluorescence intensity when surface-saturation is obtained. Fmax was set as the highest value of fluorescence observed in each data set. […]

[4] = molecular target: bovine serum albumin (BSA) (Bos taurus, UniProt P02769); assay: Yeast surface titration with biotinylated BSA (selectivity control); format: binding; conditions: Figure S7A, intracellular transglutaminase route
Chain of bovine serum albumin (BSA) (P02769 25-607): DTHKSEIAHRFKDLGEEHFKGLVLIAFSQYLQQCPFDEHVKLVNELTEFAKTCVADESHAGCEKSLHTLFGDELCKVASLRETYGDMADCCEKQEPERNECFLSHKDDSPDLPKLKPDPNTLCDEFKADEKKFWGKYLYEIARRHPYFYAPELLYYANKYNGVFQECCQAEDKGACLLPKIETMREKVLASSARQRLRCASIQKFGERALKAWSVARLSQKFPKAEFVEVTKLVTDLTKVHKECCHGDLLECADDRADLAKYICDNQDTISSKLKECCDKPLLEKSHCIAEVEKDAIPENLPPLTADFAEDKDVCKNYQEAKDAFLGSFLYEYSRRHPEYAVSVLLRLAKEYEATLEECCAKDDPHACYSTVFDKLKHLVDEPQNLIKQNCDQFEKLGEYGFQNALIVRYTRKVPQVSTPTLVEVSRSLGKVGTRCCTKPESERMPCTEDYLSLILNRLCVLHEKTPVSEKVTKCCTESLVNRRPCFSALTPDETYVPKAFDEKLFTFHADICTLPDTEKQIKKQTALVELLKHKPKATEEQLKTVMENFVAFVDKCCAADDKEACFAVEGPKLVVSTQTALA
Protocol: as §1, §2, §3

For “ALASGSRGGG [active TG, Q-to-A lead/c-myc]”, the “c-myc detection after TEV protease (intracellular constructs)” value (TEV protease [1]) was “significantly lower binding”.
In the case of ALQSGSRGGG-EQKLISEEDL [model peptide], the “c-myc level after TEV protease, transglutaminase-treated” value (TEV protease [2]; transglutaminase-treated) is reported as “only a slight decrease”, the “c-myc level after TEV protease, no transglutaminase” value (TEV protease [2]; untreated with transglutaminase) is reported as “significant decrease in fluorescence” and the “c-myc signal change on transglutaminase treatment” value (transglutaminase) is reported as “a notable decrease in the c-myc signal”.
For QLYLAYPAHK, the “binding to N-terminal YAP (in words)” value (N-terminal YAP (N-YAP)) was “shown to bind to N-terminal YAP”, the “binding to WW-YAP (in words)” value ([3]; listed as linear form of the peptide) was “not WW-YAP” and the “binding to WW-YAP (in words)” value ([3]; listed as linear precursors) was “much lower binding affinity”. The “KD (apparent) WW-YAP” value ([3]; monovalent binding isotherm, 1 h at 4 °C, 0.1% PBSA, SA-PE flow cytometry, average of three independent replicates ± one standard error) was “L/B”.
In the case of “cyclo[E-VQCRGKGEQ-K] (sidechain bridge or staple) [putative cyclic peptide from intracellular transglutaminase library]”, the “binding specificity N-terminal YAP vs. BSA (in words)” value [4] is reported as “selective binder for N-terminal YAP”.
